The values that follow are results of earlier work, collected in patent publication US20040259736A1, “Biodegradable solid preparation of a phytopathologicalagent with delayed active substance release” (priority 2001, published 2004).

The structures appear in SMILES notation. ≈ marks a conversion by molar mass, not a printed value.

Take `CN/C(=N\[N+](=O)[O-])NCc1cnc(Cl)s1` [Clothianidin, (E)-1-(2-chlorothiazol-5-ylmethyl)-3-methyl-2-nitroguanidine]: the solubility in water was 270 µg/mL (≈ 1080 µM). Turning to `CNC(=O)C(=NOC)c1ccccc1CO/N=C(\C)C(=NOC)/C(C)=N/OC` [II-4, N-Methyl-2-(methoxyimino)-2-{2-[(3E,6E)-5-(methoxyimino)-4,6-dimethyl-2,8-dioxa-3,7-diazanona-3,6-dien-1-yl]phenyl}-acetamide], the solubility in water was 80 µg/mL (≈ 204 µM). Consider `CNC(=N[N+](=O)[O-])NCC1CCOC1` (stereo not shown) [MTI-446], for which the solubility in water is 54000 µg/mL (≈ 267000 µM) and the “solubility in water (in words)” value was “freely soluble in water”.
